# Experimental data as given in patent EP4678639A1, “SALT OF BENZIMIDAZOLE DERIVATIVE” (JW Pharmaceutical Corporation, priority 2023, dated 2024).
# Counter-ions that a name gives are not always drawn.
# Key:
# [1] = Liquid stability comparative test (20 mg/mL in purified water, 40 °C, 24 hours, HPLC); assay type: physicochemical; details: for After 24 hours Purity (%) / Initial Purity (%) / After 24 hours Degradant (%) / Initial Degradant (%): 20 mg/mL in purified water; for Initial Purity (%) / Initial Degradant (%): initial time point; for After 24 hours Degradant (%) / Initial Degradant (%): degradant of Formula 4; for Amount of Change Degradant (%): initial vs after 24 hours at 40 °C
# Method: The analysis conditions are as follows.
# Each sample was dissolved in purified water to prepare a solution with a concentration of 20 mg/mL, stored at an external temperature of 40 °C, and analyzed by HPLC at the initial time point and after 24 hours to measure purity, and the change in the generated degradant (Formula 4) was measured. The analysis of total related substances and degradants was performed by taking a liquid from a solution prepared at a concentration of 20 mg/mL, diluting it to a concentration of 4 mg/mL with the diluent of the related substance test method (HPLC), and measuring it as a test solution, and analyzing it according to the related substance test method (HPLC).
# [2] = Raw material stability test versus tegoprazan freebase (60 °C or 90 % RH); assay type: physicochemical; details: for change in appearance, 60 °C / change in appearance, 90 % RH: 3 weeks; for amount of total related substances generated (FIG. 13): stress temperature/humidity storage, compared to tegoprazan freebase
# [3] = Stability test by formulation (tablets and orally disintegrating tablets, 60 °C or 90 % RH); assay type: physicochemical; details: tablets and orally disintegrating tablets prepared with the named salt, versus reference drug; for amount of total related substances generated (FIGS. 18 and 19): 60 °C or 90 % RH, 1 or 3 weeks; for degree of weight gain (FIG. 17): 90 % RH, 3 weeks
# Method: The amount of total related substances under stress storage conditions (temperature/humidity) was measured using liquid chromatography (HPLC) using an Infinity 1260 (Agilent) equipment. The analysis conditions are as follows.
# To minimize the influence of additives, each test formulation was selected with the same additives as the reference drug (K-CAB tablets 50 mg, K-CAB orally disintegrating tablets 50 mg) disclosed in the Ministry of Food and Drug Safety Pharmaceutical Integrated Information System, and to minimize differences due to the granule manufacturing process, the formulation was prepared using the simple mixing (direct compression) method. Each formulation was as shown in Tables 16 and 17 below, and the stability conditions were conducted for each formulation under the storage conditions of 60 °C, which is a stress temperature condition, and 90 % RH, which is a stress humidity condition, respectively.
# Stability tests were conducted under stress storage conditions (temperature/humidity) for each formulation. The results of measuring the amount of total related substances after storage under stress conditions for 1 week or 3 weeks are shown in FIG. 18 and FIG. 19.
# [4] = Solid-state stress stability test (humidity 90 % RH); details: for Remarks: state of the solid; for Initial (%) Degradant / Initial (%) Total Related substances: Table 9, initial
# Method: Operation and Calculation: The blank solution, standard solution, and test solution were sequentially tested under the instrument operating conditions according to the liquid chromatography method in the General Test Methods of the 12th Edition of the Korean Pharmacopoeia, and the amount of related substances was calculated using the following equation. Amount of each related; substance (%) = (AT)/(AS) × (CS)/(CT) × (Molecular weight; of the sample)/(Molecular weight; of the standard; product) × P × (1)/(RR; F) [formula] AT = Area of each related substance peak obtained from the test solution AS = Area of the tegoprazan peak obtained from the standard solution CS = Concentration of standard solution (mg/mL) CT = Concentration of test solution (mg/mL) P = Purity/Assay/Potency (%) of standard product RRF = Relative response factor (1.0)
# A solid-state stability comparative test was conducted on each of the above-mentioned prepared tegoprazan acid addition salts. The stability comparative test was conducted for 1 month under the conditions shown in Table 6 below in accordance with The International Council for Harmonisation of Technical Requirements for Pharmaceuticals for Human Use (ICH) guideline, and the purity of the acid addition salt, total related substances, and the content of degradants were measured by HPLC at the initial time point and after 1 month. Total related substances and degradants were measured according to the related substance test method (HPLC).
# 3) Stress Stability (humidity 90 % RH)
# [5] = Solid-state stress stability test (temperature 60 °C); details: for After 1 Month (%) Degradant / After 1 Month (%) Total Related substances / change in appearance, change in the color of the solid / Remarks: 1 month; for Change (%) Degradant: 1 month vs initial; for Remarks: appearance; for Initial (%) Degradant / Initial (%) Total Related substances: Table 8, initial
# [6] = Photostability test, visible light (1.2 Mlux·hr) exposure; details: for Change (%) Degradant: Table 11, after exposure vs initial; for After (%) Degradant / After (%) Total Related substances: Table 11 under heading Visible Light (1.2 Mlux-hr) Exposure Test
# Method: A photostability comparative test was conducted on each of the above-mentioned prepared tegoprazan acid addition salts. The test was conducted by exposing the sample to light with an energy of 200 W hr/m^2 of ultraviolet light and 1.2 Mlux hr of visible light in accordance with The International Council for Harmonisation of Technical Requirements for Pharmaceuticals for Human Use (ICH) guideline, with the samples packaged in a single PE bag and spread thinly enough to ensure exposure to the light source, taking humidity stability into consideration. The purity of the acid addition salts and the change in the amount of degradants at the initial time point and after exposure to ultraviolet light or visible light were measured by HPLC.
# [7] = Photostability test, ultraviolet light (200 W·hr/m2) exposure; details: for After Ultraviolet Light Exposure (200 W hr/m2)(%) Degradant / After Ultraviolet Light Exposure (200 W hr/m2)(%) Total Related substances: Table 10, UV 200 W·hr/m2, PE bag; for Change (%) Degradant: Table 10, after UV exposure vs initial; for Initial (%) Degradant / Initial (%) Total Related substances: Table 10, initial
# [8] = Solid-state accelerated stability test (40 ± 2 °C/RH 75 ± 5 %); details: for Change (%) Degradant: 1 month vs initial; for Initial (%) Total Related substances / Initial (%) Degradant: Table 7, initial; for Initial (%) Degradant: degradant of Formula 4
# [9] = liquid stability, 40 °C, 24 hours
# [10] = 40 ± 2 °C / RH 75 ± 5 %, 1 month
smiles,measurement,setting,value
Cc1nc2c(O[C@H]3CCOc4cc(F)cc(F)c43)cc(C(=O)N(C)C)cc2[nH]1 [Methanesulfonate Salt (Crystalline Form)],After 24 hours Purity (%),"[1]; 40 °C, 24 hours",99.47%
same,Initial Purity (%),[1],99.95%
same,After 24 hours Degradant (%),"[1]; 40 °C, 24 hours",0.446%
same,Initial Degradant (%),[1],0.028%
same,Amount of Change Degradant (%),[1],0.42%
same,increase in degradants (degradant of Formula 4),[1]; [9],≤ 0.5%
same,"change in appearance, 60 °C",[2],No change in appearance
same,"change in appearance, 90 % RH",[2],Dissolved to transparency
same,"change in appearance, Initial",[2],No change in appearance
same,amount of total related substances generated (FIG. 13),[2],significantly increased
same,amount of total related substances generated (FIGS. 18 and 19),[3],significantly increased
same,degree of weight gain (FIG. 17),[3],greater
same,absorb moisture and deliquesce / melted,[4]; 90 % RH,absorb moisture and deliquesce
same,Remarks,"[4]; 90 % RH, 1 month",Melted
same,Initial (%) Degradant,[4],0.122%
same,Initial (%) Total Related substances,[4],0.265%
same,Change in Quality (%) 90 % RH (4 weeks) Degradant,[4]; Table 12 summary,Melted
same,Change in Quality (%) 90 % RH (4 weeks) Purity,[4]; Table 12 summary,Melted
same,total related substances increased after 1 month,[5]; 60 °C,≥ 5.0%
same,After 1 Month (%) Degradant,[5]; 60 °C,4.167%
same,After 1 Month (%) Total Related substances,[5]; 60 °C,5.408%
same,"change in appearance, change in the color of the solid",[5]; 60 °C,change in appearance
same,Change (%) Degradant,[5]; 60 °C,4.045%
same,Remarks,[5]; 60 °C,Discolorat ion
same,Initial (%) Degradant,[5],0.122%
same,Initial (%) Total Related substances,[5],0.265%
same,Change in Quality (%) 60 °C (4 weeks) Degradant,[5]; Table 12 summary,4.045%
same,Change in Quality (%) 60 °C (4 weeks) Purity,[5]; Table 12 summary,-5.143%
same,60 °C (4 weeks) appearance remark,"[5]; Table 12 summary, remark in brackets under the 60 °C columns",(Discoloration)
same,Change (%) Degradant,[6],0.086%
same,Initial (%) Degradant,"[6]; Table 11, initial",0.122%
same,Initial (%) Total Related substances,"[6]; Table 11, initial",0.265%
same,After (%) Degradant,[6],0.208%
same,After (%) Total Related substances,[6],0.412%
same,Change in Quality (%) Light (Visible) Degradant,[6]; Table 12 summary,0.086%
same,After Ultraviolet Light Exposure (200 W hr/m2)(%) Degradant,[7],0.168%
same,After Ultraviolet Light Exposure (200 W hr/m2)(%) Total Related substances,[7],0.339%
same,Change (%) Degradant,[7],0.046%
same,Initial (%) Degradant,[7],0.122%
same,Initial (%) Total Related substances,[7],0.265%
same,Change in Quality (%) Light (Ultraviolet) Degradant,[7]; Table 12 summary,0.046%
same,Change in Quality (%) Light (Ultraviolet) Purity,[7]; Table 12 summary,0.074%
same,After 1 Month (%) Degradant,[8]; [10],0.518%
same,After 1 Month (%) Total Related substances,[8]; [10],0.727%
same,Change (%) Degradant,[8]; 40 ± 2 °C / RH 75 ± 5 %,0.396%
same,Initial (%) Total Related substances,[8],0.265%
same,Initial (%) Degradant,[8],0.122%
same,Change in Quality (%) Accelerated (4 weeks) Degradant,[8]; Table 12 summary,0.396%
same,Change in Quality (%) Accelerated (4 weeks) Purity,[8]; Table 12 summary,-0.462%
same,increase in total related substances after 1 month,[8]; accelerated stability,≥ 0.3%
Cc1nc2c(O[C@H]3CCOc4cc(F)cc(F)c43)cc(C(=O)N(C)C)cc2[nH]1 [Sulfate Salt],After 24 hours Purity (%),"[1]; 40 °C, 24 hours",93.95%
same,Initial Purity (%),[1],99.89%
same,After 24 hours Degradant (%),"[1]; 40 °C, 24 hours",5.414%
same,Initial Degradant (%),[1],0.080%
same,Amount of Change Degradant (%),[1],5.33%
same,degradants formed after 24 hours of storage,[1]; [9],≥ 5%
same,purity decreased,[1]; [9],about 6%
same,"change in appearance, 60 °C",[2],Pungent odor
same,"change in appearance, 90 % RH",[2],Pungent odor
same,"change in appearance, Initial",[2],Pungent odor
same,amount of total related substances generated (FIG. 13),[2],significantly increased
same,amount of total related substances generated (FIGS. 18 and 19),[3],significantly increased
same,degree of weight gain (FIG. 17),[3],greater
same,After 1 Month (%) Degradant,"[4]; 90 % RH, 1 month",14.500%
same,After 1 Month (%) Total Related substances,"[4]; 90 % RH, 1 month",16.637%
same,Change (%) Degradant,"[4]; 90 % RH, 1 month vs initial",14.161%
same,Remarks,"[4]; 90 % RH, 1 month",Polymorp hic Transition
same,polymorphic transition (PXRD),"[4]; 90 % RH, after 1 month",polymorphic transition occurred
same,Initial (%) Degradant,[4],0.339%
same,Initial (%) Total Related substances,[4],0.609%
same,After 1 Month (%) Degradant,[5]; 60 °C,2.345%
same,After 1 Month (%) Total Related substances,[5]; 60 °C,3.441%
same,"change in appearance, change in the color of the solid",[5]; 60 °C,change in appearance
same,Change (%) Degradant,[5]; 60 °C,2.006%
same,Remarks,[5]; 60 °C,Discolorat ion
same,Initial (%) Degradant,[5],0.339%
same,Initial (%) Total Related substances,[5],0.609%
same,Change (%) Degradant,[6],1.934%
same,Initial (%) Degradant,"[6]; Table 11, initial",0.339%
same,Initial (%) Purity,"[6]; Table 11, initial",99.3%
same,Initial (%) Total Related substances,"[6]; Table 11, initial",0.609%
same,After (%) Degradant,[6],2.273%
same,After (%) Total Related substances,[6],2.754%
same,After Ultraviolet Light Exposure (200 W hr/m2)(%) Degradant,[7],1.415%
same,After Ultraviolet Light Exposure (200 W hr/m2)(%) Total Related substances,[7],1.748%
same,Change (%) Degradant,[7],1.076%
same,Initial (%) Degradant,[7],0.339%
same,Initial (%) Total Related substances,[7],0.609%
same,After 1 Month (%) Degradant,[8]; [10],0.712%
same,After 1 Month (%) Total Related substances,[8]; [10],1.197%
same,Change (%) Degradant,[8]; 40 ± 2 °C / RH 75 ± 5 %,0.373%
same,Remarks,"[8]; 40 ± 2 °C / RH 75 ± 5 %, 1 month, appearance",Discolorat ion
same,Initial (%) Total Related substances,[8],0.609%
same,Initial (%) Degradant,[8],0.339%
same,increase in total related substances after 1 month,[8]; accelerated stability,≥ 0.3%
same,change in appearance of the solid,"[8]; accelerated stability, 1 month",discoloration
